Columns and labels:
[1] = target: T1, DLK (Homo sapiens, UniProt Q12852); assay: KINOMEscan; type: binding; conditions: read-out: %Ctrl @ 1000 nM
T1 construct: purchased DiscoveRx KINOMEscan

[2] = target: T2, IKK-epsilon (Homo sapiens, UniProt Q14164); assay: KINOMEscan; type: binding; conditions: read-out: %Ctrl @ 1000 nM
T2 construct: purchased DiscoveRx KINOMEscan

[3] = target: T3, PLK3 (Homo sapiens, UniProt Q9H4B4); assay: KINOMEscan; type: binding; conditions: read-out: %Ctrl @ 1000 nM
T3 construct: purchased DiscoveRx KINOMEscan

[4] = target: T4, EPHB4 (Homo sapiens, UniProt P54760); assay: KINOMEscan; type: binding; conditions: read-out: %Ctrl @ 1000 nM
T4 construct: purchased DiscoveRx KINOMEscan
T4 sequence (P54760 16-987): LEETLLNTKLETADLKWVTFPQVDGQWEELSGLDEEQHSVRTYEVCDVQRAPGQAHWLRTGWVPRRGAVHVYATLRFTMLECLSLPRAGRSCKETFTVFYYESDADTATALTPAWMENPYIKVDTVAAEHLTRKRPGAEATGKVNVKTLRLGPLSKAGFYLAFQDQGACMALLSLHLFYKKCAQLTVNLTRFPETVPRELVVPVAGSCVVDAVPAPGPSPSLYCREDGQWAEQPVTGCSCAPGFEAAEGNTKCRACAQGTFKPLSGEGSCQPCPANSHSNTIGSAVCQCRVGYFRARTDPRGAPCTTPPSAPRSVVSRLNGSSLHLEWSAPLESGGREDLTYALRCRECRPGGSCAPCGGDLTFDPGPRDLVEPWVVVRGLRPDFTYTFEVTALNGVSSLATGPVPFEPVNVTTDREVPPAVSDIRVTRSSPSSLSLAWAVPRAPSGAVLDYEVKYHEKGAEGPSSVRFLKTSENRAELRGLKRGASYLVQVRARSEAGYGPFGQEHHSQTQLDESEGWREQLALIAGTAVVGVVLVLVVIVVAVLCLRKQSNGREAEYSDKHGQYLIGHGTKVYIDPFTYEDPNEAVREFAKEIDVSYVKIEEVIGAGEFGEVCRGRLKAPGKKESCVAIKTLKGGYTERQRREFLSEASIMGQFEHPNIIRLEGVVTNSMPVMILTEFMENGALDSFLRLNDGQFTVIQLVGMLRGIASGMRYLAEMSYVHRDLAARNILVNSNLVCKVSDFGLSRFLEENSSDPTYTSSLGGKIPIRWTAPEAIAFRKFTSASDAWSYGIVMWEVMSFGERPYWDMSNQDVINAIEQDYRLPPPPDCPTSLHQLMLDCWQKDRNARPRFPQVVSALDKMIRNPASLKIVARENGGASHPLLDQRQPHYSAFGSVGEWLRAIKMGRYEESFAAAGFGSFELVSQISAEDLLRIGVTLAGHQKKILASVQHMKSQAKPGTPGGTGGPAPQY

[5] = target: T5, TNK2 (Homo sapiens, UniProt Q07912); assay: KINOMEscan; type: binding; conditions: read-out: %Ctrl @ 1000 nM
T5 construct: purchased DiscoveRx KINOMEscan

[6] = target: T6, CDK2 (Homo sapiens, UniProt P24941); assay: KINOMEscan; type: binding; conditions: read-out: %Ctrl @ 1000 nM
T6 construct: purchased DiscoveRx KINOMEscan

[7] = target: T7, PIK3C2B (Homo sapiens, UniProt O00750); assay: KINOMEscan; type: binding; conditions: read-out: %Ctrl @ 1000 nM
T7 construct: purchased DiscoveRx KINOMEscan
T7 sequence (O00750 whole entry): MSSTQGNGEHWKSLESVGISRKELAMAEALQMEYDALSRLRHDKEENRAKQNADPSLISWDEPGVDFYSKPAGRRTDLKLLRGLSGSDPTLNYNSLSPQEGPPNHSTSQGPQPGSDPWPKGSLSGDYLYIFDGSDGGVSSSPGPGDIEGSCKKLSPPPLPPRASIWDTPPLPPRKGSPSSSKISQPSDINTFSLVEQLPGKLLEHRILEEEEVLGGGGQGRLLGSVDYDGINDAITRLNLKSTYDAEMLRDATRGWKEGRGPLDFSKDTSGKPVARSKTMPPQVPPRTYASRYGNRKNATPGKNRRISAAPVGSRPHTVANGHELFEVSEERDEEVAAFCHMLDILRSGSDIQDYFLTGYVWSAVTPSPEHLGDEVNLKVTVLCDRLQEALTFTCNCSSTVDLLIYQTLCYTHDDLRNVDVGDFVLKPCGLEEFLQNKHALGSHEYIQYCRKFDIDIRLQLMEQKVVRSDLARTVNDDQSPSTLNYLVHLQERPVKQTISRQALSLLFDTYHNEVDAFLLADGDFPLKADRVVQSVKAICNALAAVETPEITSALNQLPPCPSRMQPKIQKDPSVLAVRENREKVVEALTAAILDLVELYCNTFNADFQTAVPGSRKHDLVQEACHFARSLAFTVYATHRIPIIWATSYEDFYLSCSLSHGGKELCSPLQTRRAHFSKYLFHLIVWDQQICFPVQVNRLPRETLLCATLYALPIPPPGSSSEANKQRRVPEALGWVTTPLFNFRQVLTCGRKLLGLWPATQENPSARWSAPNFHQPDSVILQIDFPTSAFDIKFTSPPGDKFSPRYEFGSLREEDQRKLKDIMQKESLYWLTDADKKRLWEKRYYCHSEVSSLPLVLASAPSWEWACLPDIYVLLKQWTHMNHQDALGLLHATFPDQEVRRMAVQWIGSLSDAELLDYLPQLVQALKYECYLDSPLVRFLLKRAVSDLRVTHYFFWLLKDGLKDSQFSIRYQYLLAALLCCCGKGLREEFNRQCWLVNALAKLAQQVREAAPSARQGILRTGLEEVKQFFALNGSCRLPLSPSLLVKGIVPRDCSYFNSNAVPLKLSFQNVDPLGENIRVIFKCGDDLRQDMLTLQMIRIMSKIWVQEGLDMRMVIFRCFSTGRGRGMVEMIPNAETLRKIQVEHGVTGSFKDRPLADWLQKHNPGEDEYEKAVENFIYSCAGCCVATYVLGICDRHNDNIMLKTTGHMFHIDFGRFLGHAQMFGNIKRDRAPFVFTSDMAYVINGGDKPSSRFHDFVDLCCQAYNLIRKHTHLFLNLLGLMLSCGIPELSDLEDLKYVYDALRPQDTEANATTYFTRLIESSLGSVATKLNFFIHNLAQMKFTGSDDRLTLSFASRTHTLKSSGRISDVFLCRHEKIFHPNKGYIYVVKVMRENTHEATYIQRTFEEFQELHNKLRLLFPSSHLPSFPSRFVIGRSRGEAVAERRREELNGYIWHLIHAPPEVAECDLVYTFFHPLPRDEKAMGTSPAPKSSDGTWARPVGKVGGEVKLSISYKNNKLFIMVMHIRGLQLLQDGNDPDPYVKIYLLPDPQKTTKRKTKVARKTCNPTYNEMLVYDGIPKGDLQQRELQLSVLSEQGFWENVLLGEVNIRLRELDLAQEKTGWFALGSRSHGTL

[8] = target: T8, MYO3B (Homo sapiens, UniProt Q8WXR4); assay: KINOMEscan; type: binding; conditions: read-out: %Ctrl @ 1000 nM
T8 construct: purchased DiscoveRx KINOMEscan

[9] = target: T9, PAK4 (Homo sapiens, UniProt O96013); assay: KINOMEscan; type: binding; conditions: read-out: %Ctrl @ 1000 nM
T9 construct: purchased DiscoveRx KINOMEscan

[10] = Exposure and tolerability after oral administration to mice; type: in vivo; conditions: 10–100 mg/kg po qd
[11] = target: T10, MAP4K4 (Homo sapiens, UniProt O95819); assay: KINOMEscan; type: binding; conditions: read-out: %Ctrl @ 1000 nM
T10 construct: purchased DiscoveRx KINOMEscan

[12] = target: T11, EPHA1 (Homo sapiens, UniProt P21709); assay: KINOMEscan; type: binding; conditions: read-out: %Ctrl @ 1000 nM
T11 construct: purchased DiscoveRx KINOMEscan

[13] = target: T12, GCN2(Kin.Dom.2,S808G) (Homo sapiens, UniProt Q9P2K8, S808G); assay: KINOMEscan; type: binding; conditions: read-out: %Ctrl @ 1000 nM
T12 construct: GCN2(Kin.Dom.2,S808G); purchased DiscoveRx KINOMEscan

[14] = target: T13, SYK (Homo sapiens, UniProt P43405); assay: KINOMEscan; type: binding; conditions: read-out: %Ctrl @ 1000 nM
T13 construct: purchased DiscoveRx KINOMEscan

[15] = target: T14, PLK1 (Homo sapiens, UniProt P53350); assay: KINOMEscan; type: binding; conditions: read-out: %Ctrl @ 1000 nM
T14 construct: purchased DiscoveRx KINOMEscan

[16] = target: T15, EGFR(E746-A750del) (Homo sapiens, UniProt P00533, DEL746-750); assay: KINOMEscan; type: binding; conditions: read-out: %Ctrl @ 1000 nM
T15 construct: purchased DiscoveRx KINOMEscan

[17] = target: T16, STK16 (Homo sapiens, UniProt O75716); assay: KINOMEscan; type: binding; conditions: read-out: %Ctrl @ 1000 nM
T16 construct: purchased DiscoveRx KINOMEscan

[18] = target: T17, KIT (Homo sapiens, UniProt P10721); assay: KINOMEscan; type: binding; conditions: read-out: %Ctrl @ 1000 nM
T17 construct: purchased DiscoveRx KINOMEscan

[19] = target: T18, PDGFRB (Homo sapiens, UniProt P09619); assay: KINOMEscan; type: binding; conditions: read-out: %Ctrl @ 1000 nM
T18 construct: purchased DiscoveRx KINOMEscan
T18 sequence (P09619 33-1106): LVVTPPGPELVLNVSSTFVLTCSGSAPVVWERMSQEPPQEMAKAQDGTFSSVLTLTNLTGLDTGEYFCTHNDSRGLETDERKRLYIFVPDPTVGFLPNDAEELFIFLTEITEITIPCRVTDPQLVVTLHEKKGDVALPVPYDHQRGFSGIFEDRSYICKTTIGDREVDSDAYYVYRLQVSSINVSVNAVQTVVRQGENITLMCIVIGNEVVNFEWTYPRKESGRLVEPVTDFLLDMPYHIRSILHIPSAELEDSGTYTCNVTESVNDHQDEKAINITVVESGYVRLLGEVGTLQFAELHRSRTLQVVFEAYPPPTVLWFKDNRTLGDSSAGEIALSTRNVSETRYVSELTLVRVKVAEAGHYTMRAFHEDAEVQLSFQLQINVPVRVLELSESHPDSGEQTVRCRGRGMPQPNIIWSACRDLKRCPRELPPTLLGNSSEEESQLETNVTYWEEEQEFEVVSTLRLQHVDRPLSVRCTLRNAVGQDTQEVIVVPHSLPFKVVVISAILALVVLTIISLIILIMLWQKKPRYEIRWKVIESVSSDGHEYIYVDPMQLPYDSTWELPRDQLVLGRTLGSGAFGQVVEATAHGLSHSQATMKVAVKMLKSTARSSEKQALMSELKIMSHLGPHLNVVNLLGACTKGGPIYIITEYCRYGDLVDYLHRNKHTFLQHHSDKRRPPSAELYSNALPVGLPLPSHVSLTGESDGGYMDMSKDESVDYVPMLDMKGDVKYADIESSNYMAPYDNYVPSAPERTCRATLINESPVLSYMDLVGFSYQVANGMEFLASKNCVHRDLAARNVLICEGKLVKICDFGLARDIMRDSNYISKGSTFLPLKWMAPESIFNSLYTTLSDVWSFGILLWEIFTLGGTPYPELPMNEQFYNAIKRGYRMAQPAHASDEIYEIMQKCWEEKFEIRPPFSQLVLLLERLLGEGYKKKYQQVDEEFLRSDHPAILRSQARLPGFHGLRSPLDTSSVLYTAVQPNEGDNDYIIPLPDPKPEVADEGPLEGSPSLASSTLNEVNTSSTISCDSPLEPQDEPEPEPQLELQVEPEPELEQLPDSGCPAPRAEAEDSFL

[20] = target: T19, CDKL5 (Homo sapiens, UniProt O76039); assay: KINOMEscan; type: binding; conditions: read-out: %Ctrl @ 1000 nM
T19 construct: purchased DiscoveRx KINOMEscan

[21] = target: T20, CDK8 (Homo sapiens, UniProt P49336); assay: KINOMEscan; type: binding; conditions: read-out: %Ctrl @ 1000 nM
T20 construct: purchased DiscoveRx KINOMEscan

[22] = target: T21, MET(Y1235D) (Homo sapiens, UniProt P08581, Y1235D); assay: KINOMEscan; type: binding; conditions: read-out: %Ctrl @ 1000 nM
T21 construct: purchased DiscoveRx KINOMEscan

[23] = target: T22, NDR1 (Homo sapiens, UniProt Q15208); assay: KINOMEscan; type: binding; conditions: read-out: %Ctrl @ 1000 nM
T22 construct: purchased DiscoveRx KINOMEscan

[24] = target: T23, ASK1 (Homo sapiens, UniProt Q99683); assay: KINOMEscan; type: binding; conditions: read-out: %Ctrl @ 1000 nM
T23 construct: purchased DiscoveRx KINOMEscan
T23 sequence (Q99683 whole entry): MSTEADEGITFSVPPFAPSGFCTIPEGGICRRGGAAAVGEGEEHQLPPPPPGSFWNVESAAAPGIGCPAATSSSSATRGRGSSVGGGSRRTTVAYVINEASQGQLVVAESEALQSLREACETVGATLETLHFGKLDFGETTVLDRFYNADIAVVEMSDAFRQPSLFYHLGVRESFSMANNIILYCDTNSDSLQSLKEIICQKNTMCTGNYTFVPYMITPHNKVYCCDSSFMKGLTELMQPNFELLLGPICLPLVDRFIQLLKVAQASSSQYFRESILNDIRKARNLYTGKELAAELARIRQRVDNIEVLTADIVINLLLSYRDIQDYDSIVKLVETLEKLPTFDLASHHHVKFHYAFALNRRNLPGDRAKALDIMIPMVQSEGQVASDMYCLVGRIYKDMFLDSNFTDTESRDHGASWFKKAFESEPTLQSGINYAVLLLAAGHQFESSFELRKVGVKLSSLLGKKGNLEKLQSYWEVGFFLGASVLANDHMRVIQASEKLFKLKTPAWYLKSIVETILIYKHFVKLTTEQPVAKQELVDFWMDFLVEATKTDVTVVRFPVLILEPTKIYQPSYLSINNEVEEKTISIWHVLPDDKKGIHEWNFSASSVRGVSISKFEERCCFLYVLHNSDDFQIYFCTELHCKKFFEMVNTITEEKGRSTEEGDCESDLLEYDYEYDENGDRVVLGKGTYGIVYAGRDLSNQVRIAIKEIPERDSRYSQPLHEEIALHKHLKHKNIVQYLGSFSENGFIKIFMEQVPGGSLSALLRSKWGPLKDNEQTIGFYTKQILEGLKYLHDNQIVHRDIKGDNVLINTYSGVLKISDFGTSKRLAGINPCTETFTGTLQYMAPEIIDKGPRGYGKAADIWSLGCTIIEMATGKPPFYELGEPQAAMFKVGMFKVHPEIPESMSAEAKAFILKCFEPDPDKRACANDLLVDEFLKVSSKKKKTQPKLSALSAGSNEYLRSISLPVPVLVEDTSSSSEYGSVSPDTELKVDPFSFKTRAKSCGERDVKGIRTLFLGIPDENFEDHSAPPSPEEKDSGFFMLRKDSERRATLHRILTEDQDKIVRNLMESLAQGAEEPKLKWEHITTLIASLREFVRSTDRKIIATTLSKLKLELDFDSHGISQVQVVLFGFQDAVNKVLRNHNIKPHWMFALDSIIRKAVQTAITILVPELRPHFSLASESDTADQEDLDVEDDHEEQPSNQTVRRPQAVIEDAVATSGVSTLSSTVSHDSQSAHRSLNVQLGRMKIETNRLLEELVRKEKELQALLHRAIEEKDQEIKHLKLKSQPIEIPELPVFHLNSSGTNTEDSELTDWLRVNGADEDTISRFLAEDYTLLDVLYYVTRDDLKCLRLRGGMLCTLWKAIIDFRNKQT

[25] = target: T24, OSR1 (Homo sapiens, UniProt O95747); assay: KINOMEscan; type: binding; conditions: read-out: %Ctrl @ 1000 nM
T24 construct: purchased DiscoveRx KINOMEscan

[26] = target: T25, RSK2(Kin.Dom.2-C-terminal) (Homo sapiens, UniProt P51812); assay: KINOMEscan; type: binding; conditions: read-out: %Ctrl @ 1000 nM
T25 construct: RSK2(Kin.Dom.2-C-terminal); purchased DiscoveRx KINOMEscan

[27] = target: T26, MLCK (Homo sapiens, UniProt Q32MK0); assay: KINOMEscan; type: binding; conditions: read-out: %Ctrl @ 1000 nM
T26 construct: purchased DiscoveRx KINOMEscan

[28] = target: T27, MARK1 (Homo sapiens, UniProt Q9P0L2); assay: KINOMEscan; type: binding; conditions: read-out: %Ctrl @ 1000 nM
T27 construct: purchased DiscoveRx KINOMEscan

[29] = target: T28, MAPKAPK2 (Homo sapiens, UniProt P49137); assay: KINOMEscan; type: binding; conditions: read-out: %Ctrl @ 1000 nM
T28 construct: purchased DiscoveRx KINOMEscan

[30] = target: T29, HIPK1 (Homo sapiens, UniProt Q86Z02); assay: KINOMEscan; type: binding; conditions: read-out: %Ctrl @ 1000 nM
T29 construct: purchased DiscoveRx KINOMEscan

[31] = target: T30, PIK3CA(E545A) (Homo sapiens, UniProt P42336, E545A); assay: KINOMEscan; type: binding; conditions: read-out: %Ctrl @ 1000 nM
T30 construct: purchased DiscoveRx KINOMEscan

[32] = target: T31, ABL1(F317L)-phosphorylated (Homo sapiens, UniProt P00519, F317L); assay: KINOMEscan; type: binding; conditions: read-out: %Ctrl @ 1000 nM
T31 construct: purchased DiscoveRx (KINOMEscan service)

[33] = target: T32, SRMS (Homo sapiens, UniProt Q9H3Y6); assay: KINOMEscan; type: binding; conditions: read-out: %Ctrl @ 1000 nM
T32 construct: purchased DiscoveRx KINOMEscan

[34] = target: T33, PKAC-beta (Homo sapiens, UniProt P22694); assay: KINOMEscan; type: binding; conditions: read-out: %Ctrl @ 1000 nM
T33 construct: purchased DiscoveRx KINOMEscan

[35] = target: T34, PIK3CA(H1047L) (Homo sapiens, UniProt P42336, H1047L); assay: KINOMEscan; type: binding; conditions: read-out: %Ctrl @ 1000 nM
T34 construct: purchased DiscoveRx KINOMEscan

## CCN(C(=O)CO)[C@H]1CN(/C(=N\C#N)Nc2cccc(OC(F)F)c2)N=C1c1ccc(Cl)c(Cl)c1 [(S)-4]
[1]
  remaining binding at 1 µM: 94%
[2]
  remaining binding at 1 µM: 99%
[3]
  remaining binding at 1 µM: 89%
[4]
  remaining binding at 1 µM: 97%
[5]
  remaining binding at 1 µM: 96%
[6]
  remaining binding at 1 µM: 100%
[7]
  remaining binding at 1 µM: 100%
[8]
  remaining binding at 1 µM: 96%
[9]
  remaining binding at 1 µM: 91%
[10]
  Tolerability: well tolerated
[11]
  remaining binding at 1 µM: 100%
[12]
  remaining binding at 1 µM: 86%
[13]
  remaining binding at 1 µM: 100%
[14]
  remaining binding at 1 µM: 59%
[15]
  remaining binding at 1 µM: 100%
[16]
  remaining binding at 1 µM: 66%
[17]
  remaining binding at 1 µM: 84%
[18]
  remaining binding at 1 µM: 100%
[19]
  remaining binding at 1 µM: 100%
[20]
  remaining binding at 1 µM: 100%
[21]
  remaining binding at 1 µM: 92%
[22]
  remaining binding at 1 µM: 100%
[23]
  remaining binding at 1 µM: 82%
[24]
  remaining binding at 1 µM: 88%
[25]
  remaining binding at 1 µM: 78%
[26]
  remaining binding at 1 µM: 100%
[27]
  remaining binding at 1 µM: 100%
[28]
  remaining binding at 1 µM: 71%
[29]
  remaining binding at 1 µM: 91%
[30]
  remaining binding at 1 µM: 51%
[31]
  remaining binding at 1 µM: 53%
[32]
  remaining binding at 1 µM: 93%
[33]
  remaining binding at 1 µM: 94%
[34]
  remaining binding at 1 µM: 100%
[35]
  remaining binding at 1 µM: 92%

Source: publication PMC4917279 (Journal of Medicinal Chemistry, 2016)
